This note sets out measurements from ChEMBL document CHEMBL5365479, “Development of Potent and Selective Coactivator-Associated Arginine Methyltransferase 1 (CARM1) Degraders” (J Med Chem, 2023).

This data set deals with MCF-10A. The data set is described as follows: Cytotoxicity against human MCF-10A cells assessed as reduction in cell viability at 0.5 uM incubated for 7 days by high contrast bright field microscopic analysis. Type of data set: toxicity, cell-based. As to conditions: 168 h, time 7 day.

Turning to `CNCCN1CCC(c2cc(CN(C)C(=O)c3cccc(Oc4ccc(OCC(=O)N5CCC(CN6CCC(CN7CCN(CC(=O)N[C@H](C(=O)N8C[C@H](O)C[C@H]8C(=O)N[C@@H](C)c8ccc(-c9scnc9C)cc8)C(C)(C)C)CC7)CC6)CC5)cc4)c3)ccn2)CC1`, the Activity result was “Non-Toxic”.
